Read-outs that look alike come from different tables or passages of the source.
How the values were obtained:
human CB-2 receptor = molecular target: T1, human CB-2 receptor (Homo sapiens, UniProt P34972); experiment: Binding assay, cannabinoid CB2 receptor ([3H]-CP-55,940 displacement); settings: read-out: CB2 binding percent inhibition
T1 construct: expressed in transfected cells; host or cells: SK-N-MC cells, pcDNA3 CB-2 (human), semi-purified membranes
Outline: (§1)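 Membranes from SK-N-MC cells stably expressing human CB-1 or CB-2 were incubated 90 min at 30° C with 0.2 nM [3H]-CP-55,940 in pH 7.5 Tris buffer with fatty-acid-free BSA; 10 uM WIN 55,212 defined non-specific binding. Filter-bound counts gave IC50 by linear regression, or percent inhibition at 0.2, 1 or 10 μM.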

human CB1 receptor = human CB1 receptor (Homo sapiens, UniProt P21554); experiment: Binding assay, cannabinoid CB1 receptor ([3H]-CP-55,940 displacement); parameters: expressed in transfected cells; host or cells: SK-N-MC cells, pcDNA3 CB-1 (human), semi-purified membranes; settings: for inhibition at 0.2 µM: test concentration 0.2 μM (superscript a), read-out: CB1 binding percent inhibition
Outline: as §1

[1] = test concentration 0.2 μM (superscript a)

T1 sequence (P34972 whole entry): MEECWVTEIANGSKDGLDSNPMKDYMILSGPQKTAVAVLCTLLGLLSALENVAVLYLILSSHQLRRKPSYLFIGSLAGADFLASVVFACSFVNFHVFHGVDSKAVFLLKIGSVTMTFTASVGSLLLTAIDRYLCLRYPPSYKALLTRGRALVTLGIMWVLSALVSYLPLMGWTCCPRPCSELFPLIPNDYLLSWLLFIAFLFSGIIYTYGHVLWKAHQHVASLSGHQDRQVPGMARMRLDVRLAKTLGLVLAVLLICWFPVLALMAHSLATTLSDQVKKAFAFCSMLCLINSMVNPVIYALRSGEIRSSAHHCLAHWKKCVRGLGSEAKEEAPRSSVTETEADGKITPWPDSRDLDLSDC
Chain of human CB1 receptor (P21554 whole entry): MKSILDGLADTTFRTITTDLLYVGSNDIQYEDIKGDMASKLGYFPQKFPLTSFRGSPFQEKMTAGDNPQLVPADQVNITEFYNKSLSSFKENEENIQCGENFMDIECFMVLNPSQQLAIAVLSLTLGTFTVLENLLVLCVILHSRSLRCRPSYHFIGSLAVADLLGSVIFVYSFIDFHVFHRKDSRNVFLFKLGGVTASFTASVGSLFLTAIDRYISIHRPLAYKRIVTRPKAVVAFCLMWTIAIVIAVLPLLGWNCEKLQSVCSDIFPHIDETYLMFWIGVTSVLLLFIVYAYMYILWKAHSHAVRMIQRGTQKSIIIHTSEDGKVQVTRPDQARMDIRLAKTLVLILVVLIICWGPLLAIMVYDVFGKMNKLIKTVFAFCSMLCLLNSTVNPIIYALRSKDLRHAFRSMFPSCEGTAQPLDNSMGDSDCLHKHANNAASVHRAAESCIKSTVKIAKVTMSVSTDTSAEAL

SMILES | inhibition at 0.2 µM (human CB-2 receptor; [1]) [%] | IC50 (human CB1 receptor) [nM] | inhibition at 0.2 µM (human CB1 receptor) [%] | inhibition at 0.2 µM (human CB-2 receptor) [%]
CC1CCCC(C)N1NC(=O)c1nn(-c2ccc(Cl)cc2Cl)c2c1CSC/C2=C\c1ccc(F)cc1 (stereo not shown) [Cpd 111, (7Z)-1-(2,4-dichloro-phenyl)-7-(4-fluoro-benzylidene)-1,4,6,7-tetrahydro-thiopyrano[4,3-c]pyrazole-3-carboxylic acid (2,6-dimethyl-piperidin-1-yl)-amide] | 16 | 14 |  | 
O=C(NN1CCCCCC1)c1nn(-c2ccc(Cl)cc2Cl)c2c1CSC/C2=C\c1ccc(F)cc1 [Cpd 112, (7Z)-1-(2,4-dichloro-phenyl)-7-(4-fluoro-benzylidene)-1,4,6,7-tetrahydro-thiopyrano[4,3-c]pyrazole-3-carboxylic acid azepan-1-ylamide] | 8 | 10 |  | 
CN1CCN(NC(=O)c2nn(-c3ccc(Cl)cc3Cl)c3c2CSC/C3=C\c2ccc(F)cc2)CC1 [Cpd 113, (7Z)-1-(2,4-dichloro-phenyl)-7-(4-fluoro-benzylidene)-1,4,6,7-tetrahydro-thiopyrano[4,3-c]pyrazole-3-carboxylic acid (4-methyl-piperazin-1-yl)-amide] | 0 |  | 17 | 
O=C(NN1CCN(CCO)CC1)c1nn(-c2ccc(Cl)cc2Cl)c2c1CSC/C2=C\c1ccc(F)cc1 [Cpd 114, (7Z)-1-(2,4-dichloro-phenyl)-7-(4-fluoro-benzylidene)-1,4,6,7-tetrahydro-thiopyrano[4,3-c]pyrazole-3-carboxylic acid [4-(2-hydroxy-ethyl)-piperazin-1-yl]-amide] | 5 |  | 6 | 
O=C(NNC1CCCCC1)c1nn(-c2ccc(Cl)cc2Cl)c2c1CSC/C2=C\c1ccc(F)cc1 [Cpd 115, (7Z)-1-(2,4-dichloro-phenyl)-7-(4-fluoro-benzylidene)-1,4,6,7-tetrahydro-thiopyrano[4,3-c]pyrazole-3-carboxylic acid N′-cyclohexyl-hydrazide] | 19 | 79 |  | 
O=C(NN1CC2CCCC2C1)c1nn(-c2ccc(Cl)cc2Cl)c2c1CSC/C2=C\c1ccc(F)cc1 (stereo not shown) [Cpd 116, (7Z)-1-(2,4-dichloro-phenyl)-7-(4-fluoro-benzylidene)-1,4,6,7-tetrahydro-thiopyrano[4,3-c]pyrazole-3-carboxylic acid (hexahydro-cyclopenta[c]pyrrol-2-yl)-amide] | 18 | 11 |  | 
C[C@@H](NC(=O)c1nn(-c2ccc(Cl)cc2Cl)c2c1CS(=O)(=O)C/C2=C\c1ccc(Cl)o1)c1ccccc1 [Cpd 117, (7Z)-7-(5-chloro-furan-2-ylmethylene)-1-(2,4-dichloro-phenyl)-5,5-dioxo-4,5,6,7-tetrahydro-1H-5λ^6-thiopyrano[4,3-c]pyrazole-3-carboxylic acid [(1R)-1-phenyl-ethyl]-amide] |  | 9 |  | 18
C[C@@H](NC(=O)c1nn(-c2ccc(Cl)cc2Cl)c2c1CS(=O)(=O)C/C2=C\c1ccc(Cl)o1)C1CCCCC1 [Cpd 118, (7Z)-7-(5-chloro-furan-2-ylmethylene)-1-(2,4-dichloro-phenyl)-5,5-dioxo-4,5,6,7-tetrahydro-1H-5λ^6-thiopyrano[4,3-c]pyrazole-3-carboxylic acid [(1R)-1-cyclohexyl-ethyl]-amide] | 11 | 8 |  | 
O=C(NN1CCCCC1)c1nn(-c2ccc(Cl)cc2Cl)c2c1CS(=O)(=O)C/C2=C\c1ccc(Cl)o1 [Cpd 119, (7Z)-7-(5-chloro-furan-2-ylmethylene)-1-(2,4-dichloro-phenyl)-5,5-dioxo-4,5,6,7-tetrahydro-1H-5λ^6-thiopyrano[4,3-c]pyrazole-3-carboxylic acid piperidin-1-ylamide] | 17 | 81 |  | 
O=C(NN1CCCCCC1)c1nn(-c2ccc(Cl)cc2Cl)c2c1CS(=O)(=O)C/C2=C\c1ccc(Cl)o1 [Cpd 120, (7Z)-7-(5-chloro-furan-2-ylmethylene)-1-(2,4-dichloro-phenyl)-5,5-dioxo-4,5,6,7-tetrahydro-1H-5λ^6-thiopyrano[4,3-c]pyrazole-3-carboxylic acid azepan-1-ylamide] | 12 | 33 |  | 
O=C(NN1CC2CCCC2C1)c1nn(-c2ccc(Cl)cc2Cl)c2c1CS(=O)(=O)C/C2=C\c1ccc(Cl)o1 (stereo not shown) [Cpd 121, (7Z)-7-(5-chloro-furan-2-ylmethylene)-1-(2,4-dichloro-phenyl)-5,5-dioxo-4,5,6,7-tetrahydro-1H-5λ^6-thiopyrano[4,3-c]pyrazole-3-carboxylic acid (hexahydro-cyclopenta[c]pyrrol-2-yl)-amide] | 15 | 48 |  | 
COC[C@H]1CCCN1NC(=O)c1nn(-c2ccc(Cl)cc2Cl)c2c1CSC/C2=C\c1ccc(F)cc1 [Cpd 122, (7Z)-1-(2,4-dichloro-phenyl)-7-(4-fluoro-benzylidene)-1,4,6,7-tetrahydro-thiopyrano[4,3-c]pyrazole-3-carboxylic acid [(2R)-2-(methoxymethyl)-pyrrolidin-1-yl]-amide] | 18 | 6 |  | 
COC[C@@H]1CCCN1NC(=O)c1nn(-c2ccc(Cl)cc2Cl)c2c1CSC/C2=C\c1ccc(F)cc1 [Cpd 123, (7Z)-1-(2,4-dichloro-phenyl)-7-(4-fluoro-benzylidene)-1,4,6,7-tetrahydro-thiopyrano[4,3-c]pyrazole-3-carboxylic acid [(2S)-2-(methoxymethyl)-pyrrolidin-1-yl]-amide] | 12 |  | 61 | 
C[C@@H](NC(=O)c1nn(-c2ccc(Cl)cc2Cl)c2c1CS(=O)(=O)C/C2=C\c1ccc(F)cc1)c1ccccn1 [Cpd 124, (7Z)-1-(2,4-dichloro-phenyl)-7-(4-fluoro-benzylidene)-5,5-dioxo-4,5,6,7-tetrahydro-1H-5λ^6-thiopyrano[4,3-c]pyrazole-3-carboxylic acid [(1R)-1-(pyridin-2-yl)-ethyl]-amide] | 12 | 5 |  | 
COC[C@@H]1CCCN1NC(=O)c1nn(-c2ccc(Cl)cc2Cl)c2c1CS(=O)(=O)C/C2=C\c1ccc(F)cc1 [Cpd 125, (7Z)-1-(2,4-dichloro-phenyl)-7-(4-fluoro-benzylidene)-5,5-dioxo-4,5,6,7-tetrahydro-1H-5λ^6-thiopyrano[4,3-c]pyrazole-3-carboxylic acid [(2S)-2-(methoxymethyl)-pyrrolidin-1-yl]-amide] | 8 | 58 |  | 
COC[C@H]1CCCN1NC(=O)c1nn(-c2ccc(Cl)cc2Cl)c2c1CS(=O)(=O)C/C2=C\c1ccc(F)cc1 [Cpd 126, (7Z)-1-(2,4-dichloro-phenyl)-7-(4-fluoro-benzylidene)-5,5-dioxo-4,5,6,7-tetrahydro-1H-5λ^6-thiopyrano[4,3-c]pyrazole-3-carboxylic acid [(2R)-2-(methoxymethyl)-pyrrolidin-1-yl]-amide] | 0 |  | 55 | 
C[C@@H](NC(=O)c1nn(-c2ccc(Cl)cc2Cl)c2c1CSC/C2=C\c1ccc(F)cc1)c1ccccn1 [Cpd 127, (7Z)-1-(2,4-dichloro-phenyl)-7-(4-fluoro-benzylidene)-1,4,6,7-tetrahydro-thiopyrano[4,3-c]pyrazole-3-carboxylic acid [(1R)-1-(pyridin-2-yl)-ethyl]-amide] |  | 7 |  | 19
C[C@@H](NC(=O)c1nn(-c2ccc(Cl)cc2Cl)c2c1CS(=O)(=O)CC2)c1ccccc1 [Cpd 128, 1-(2,4-dichloro-phenyl)-5,5-dioxo-4,5,6,7-tetrahydro-1H-5λ^6-thiopyrano[4,3-c]pyrazole-3-carboxylic acid [(1R)-1-phenyl-ethyl]-amide] | 10 |  | 5 | 
C[C@@H](NC(=O)c1nn(-c2ccc(Cl)cc2Cl)c2c1CSC/C2=C\c1ccc(Br)cc1)c1ccccc1 [Cpd 129, (7Z)-(4-Bromo-benzylidene)-1-(2,4-dichloro-phenyl)-1,4,6,7-tetrahydro-thiopyrano[4,3-c]pyrazole-3-carboxylic acid [(1R)-1-phenyl-ethyl]-amide] |  | 6 |  | 26
O=C(NN1CCCCC1)c1nn(-c2ccc(Cl)cc2Cl)c2c1CSC/C2=C\c1ccc(Br)cc1 [Cpd 130, (7Z)-(4-Bromo-benzylidene)-1-(2,4-dichloro-phenyl)-1,4,6,7-tetrahydro-thiopyrano[4,3-c]pyrazole-3-carboxylic acid piperidin-1-ylamide] | 34 | 21 |  | 
